Assays:
Type in all cases: in vivo
[1] = tested on: Italian ryegrass (Lolium mutiflorum); assay: Test C preemergence, visual plant response rating
Method in brief: (§1)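 Seeds sown in a loam–sand blend got a directed preemergence soil spray; postemergence plants (2–10 cm, one- to two-leaf stage) were sprayed with compound in a non-phytotoxic solvent plus surfactant. Injury was scored visually against untreated controls after about 10 d in a greenhouse on a 0–100 scale (100 = complete control).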

[2] = tested on: barnyardgrass (Echinochloa crus-galli); assay: Test C preemergence, visual plant response rating
Method in brief: as §1

[3] = tested on: foxtail, giant (giant foxtail, Setaria faberi); assay: Test C preemergence, visual plant response rating
Method in brief: as §1

kochia (Bassia scoparia) [4] = assay: Test C preemergence, visual plant response rating
Method in brief: as §1

[5] = tested on: pigweed (Amaranthus retroflexus); assay: Test C preemergence, visual plant response rating
Method in brief: as §1

[6] = tested on: ragweed (common ragweed, Ambrosia artemisiifolia); assay: Test C preemergence, visual plant response rating
Method in brief: as §1

[7] = tested on: Italian ryegrass (Lolium mutiflorum); assay: Test C postemergence, visual plant response rating
Method in brief: as §1

[8] = tested on: barnyardgrass (Echinochloa crus-galli); assay: Test C postemergence, visual plant response rating
Method in brief: as §1

[9] = tested on: blackgrass (Alopecurus myosuroides); assay: Test C postemergence, visual plant response rating
Method in brief: as §1

corn (Zea mays) = assay: Test C postemergence, visual plant response rating
Method in brief: as §1

[10] = tested on: foxtail, giant (giant foxtail, Setaria faberi); assay: Test C postemergence, visual plant response rating
Method in brief: as §1

[11] = tested on: galium (catchweed bedstraw, Galium aparine); assay: Test C postemergence, visual plant response rating
Method in brief: as §1

kochia (Bassia scoparia) [12] = assay: Test C postemergence, visual plant response rating
Method in brief: as §1

[13] = tested on: pigweed (Amaranthus retroflexus); assay: Test C postemergence, visual plant response rating
Method in brief: as §1

[14] = tested on: ragweed (common ragweed, Ambrosia artemisiifolia); assay: Test C postemergence, visual plant response rating
Method in brief: as §1

[15] = tested on: wheat (Triticum aestivum); assay: Test C postemergence, visual plant response rating
Method in brief: as §1

[16] = tested on: barnyardgrass (Echinochloa crus-galli); assay: Test D flooded paddy test, visual plant response rating; conditions: 250 g ai/ha, scale 0 to 100 (0 no effect, 100 complete control), 13 to 15 d
Method in brief: (§2)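 Plants grown to the 2-leaf stage; pots flooded to 3 cm above soil and compound applied directly into paddy water, depth held throughout. Kept in greenhouse 13 to 15 d, then rated visually against untreated controls on a 0–100 scale (0 no effect, 100 complete control).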

[17] = tested on: duck salad (Heteranthera limosa); assay: as above; conditions: 250 g ai/ha, scale 0 to 100 (0 no effect, 100 complete control), 13 to 15 d
Method in brief: as §2

rice (Oryza sativa) = assay: as above; conditions: 250 g ai/ha, scale 0 to 100 (0 no effect, 100 complete control), 13 to 15 d
Method in brief: as §2

[18] = tested on: sedge umbrella (small-flower umbrella sedge, Cyperus difformis); assay: as above; conditions: 250 g ai/ha, scale 0 to 100 (0 no effect, 100 complete control), 13 to 15 d
Method in brief: as §2

[19] = Test C, 31 g ai/ha, 0 is no effect, 100 is complete control
[20] = Test C, 125 g ai/ha, 0 is no effect, 100 is complete control
[21] = Test C, postemergence, 125 g ai/ha
[22] = Test C, postemergence, 31 g ai/ha

SMILES	Ryegrass, Italian plant response rating (0 to 100 scale) [1, 19]	Barnyardgrass plant response rating (0 to 100 scale) [2, 19]	Foxtail, Giant plant response rating (0 to 100 scale) [3, 19]	Kochia plant response rating (0 to 100 scale) (kochia (Bassia scoparia) [4]; [19])	Pigweed plant response rating (0 to 100 scale) [5, 19]	Ragweed plant response rating (0 to 100 scale) [6, 19]	Ryegrass, Italian plant response rating (0 to 100 scale) ([7]; Postemergence, 31 g ai/ha)	Ryegrass, Italian plant response rating (0 to 100 scale) [7, 21]	Barnyardgrass plant response rating (0 to 100 scale) [8, 21]	Blackgrass plant response rating (0 to 100 scale) [9, 21]	Corn plant response rating (0 to 100 scale) (corn (Zea mays); [21])	Foxtail, Giant plant response rating (0 to 100 scale) [10, 21]	Galium plant response rating (0 to 100 scale) [11, 21]	Kochia plant response rating (0 to 100 scale) (kochia (Bassia scoparia) [12]; [21])	Pigweed plant response rating (0 to 100 scale) ([13]; Postemergence, 31 g ai/ha)	Pigweed plant response rating (0 to 100 scale) [13, 21]	Ragweed plant response rating (0 to 100 scale) ([14]; Postemergence, 31 g ai/ha)	Ragweed plant response rating (0 to 100 scale) [14, 21]	Wheat plant response rating (0 to 100 scale) ([15]; Postemergence, 31 g ai/ha)	Wheat plant response rating (0 to 100 scale) [15, 21]	also measured
CON=C(c1cccc(OC(F)F)c1)c1c(O)c(C)nn(C)c1=O [Compound 202]	0	0	0	0	0	0	10	30	10	0	0	0	70	40	20	60	0	20	0	0	Ryegrass, Italian plant response rating (0 to 100 scale) [1, 20]: 10; Barnyardgrass plant response rating (0 to 100 scale) [2, 20]: 0; Foxtail, Giant plant response rating (0 to 100 scale) [3, 20]: 0; Kochia plant response rating (0 to 100 scale) (kochia (Bassia scoparia) [4]; [20]): 0; Pigweed plant response rating (0 to 100 scale) [5, 20]: 0; Ragweed plant response rating (0 to 100 scale) [6, 20]: 10; Barnyardgrass plant response rating (0 to 100 scale) ([8]; Postemergence, 31 g ai/ha): 0; Blackgrass plant response rating (0 to 100 scale) ([9]; Postemergence, 31 g ai/ha): 0; Corn plant response rating (0 to 100 scale) (corn (Zea mays); Postemergence, 31 g ai/ha): 0; Foxtail, Giant plant response rating (0 to 100 scale) ([10]; Postemergence, 31 g ai/ha): 0; Galium plant response rating (0 to 100 scale) ([11]; Postemergence, 31 g ai/ha): 40; Kochia plant response rating (0 to 100 scale) (kochia (Bassia scoparia) [12]; Postemergence, 31 g ai/ha): 10; Plant response rating, Barnyardgrass (Flood) [16]: 0; Plant response rating, Ducksalad (Flood) [17]: 0; Plant response rating, Rice (Flood) (rice (Oryza sativa)): 0; Plant response rating, Sedge, Umbrella (Flood) [18]: 0
C#CCO/N=C(/c1c(O)c(C)nn(C)c1=O)c1cccc2cc(Cl)ccc12 [Compound 242]	10	60	80	30	100	80	40	90	90	90	20	80	100	50	90	100	50	90	0	60	Ryegrass, Italian plant response rating (0 to 100 scale) [1, 20]: 90; Barnyardgrass plant response rating (0 to 100 scale) [2, 20]: 90; Foxtail, Giant plant response rating (0 to 100 scale) [3, 20]: 100; Kochia plant response rating (0 to 100 scale) (kochia (Bassia scoparia) [4]; [20]): 50; Pigweed plant response rating (0 to 100 scale) [5, 20]: 100; Ragweed plant response rating (0 to 100 scale) [6, 20]: 90; Barnyardgrass plant response rating (0 to 100 scale) ([8]; Postemergence, 31 g ai/ha): 80; Blackgrass plant response rating (0 to 100 scale) ([9]; Postemergence, 31 g ai/ha): 80; Corn plant response rating (0 to 100 scale) (corn (Zea mays); Postemergence, 31 g ai/ha): 0; Foxtail, Giant plant response rating (0 to 100 scale) ([10]; Postemergence, 31 g ai/ha): 70; Galium plant response rating (0 to 100 scale) ([11]; Postemergence, 31 g ai/ha): 80; Kochia plant response rating (0 to 100 scale) (kochia (Bassia scoparia) [12]; Postemergence, 31 g ai/ha): 40; Plant response rating, Barnyardgrass (Flood) [16]: 95; Plant response rating, Ducksalad (Flood) [17]: 98; Plant response rating, Rice (Flood) (rice (Oryza sativa)): 85; Plant response rating, Sedge, Umbrella (Flood) [18]: 100
Cc1nn(C)c(=O)c(/C(=N/OCc2ccccc2)c2ccc(F)c3ccccc23)c1O [Compound 158]	0	20	10	0	0	40	0	20	70	10	10	70	0	0	50	50	40	60	0	0	Ryegrass, Italian plant response rating (0 to 100 scale) ([1]; 125 g ai/ha): 0; Barnyardgrass plant response rating (0 to 100 scale) ([2]; 125 g ai/ha): 30; Foxtail, Giant plant response rating (0 to 100 scale) ([3]; 125 g ai/ha): 80; Kochia plant response rating (0 to 100 scale) (kochia (Bassia scoparia) [4]; 125 g ai/ha): 0; Pigweed plant response rating (0 to 100 scale) ([5]; 125 g ai/ha): 50; Ragweed plant response rating (0 to 100 scale) ([6]; 125 g ai/ha): 40; Barnyardgrass plant response rating (0 to 100 scale) [8, 22]: 50; Blackgrass plant response rating (0 to 100 scale) [9, 22]: 0; Corn plant response rating (0 to 100 scale) (corn (Zea mays); [22]): 0; Foxtail, Giant plant response rating (0 to 100 scale) [10, 22]: 30; Galium plant response rating (0 to 100 scale) [11, 22]: 90; Kochia plant response rating (0 to 100 scale) (kochia (Bassia scoparia) [12]; [22]): 0; Plant response rating, Barnyardgrass (Flood) [16]: 45; Plant response rating, Ducksalad (Flood) [17]: 50; Plant response rating, Rice (Flood) (rice (Oryza sativa)): 15; Plant response rating, Sedge, Umbrella (Flood) [18]: 65

Reference: US20210045385A1, “PYRIDAZINONE-SUBSTITUTED KETOXIMES AS HERBICIDES” (FMC Corporation, priority 2018, published 2021)
